A value given as a limit tells only on which side of the number the result lay.

What all share (assay type): cell-based
The target of one assay is T1, human TLR9 (Homo sapiens, UniProt Q9NR96).
T1 construct: host or cells: HEK-Blue cells
T1 sequence (Q9NR96 26-1032): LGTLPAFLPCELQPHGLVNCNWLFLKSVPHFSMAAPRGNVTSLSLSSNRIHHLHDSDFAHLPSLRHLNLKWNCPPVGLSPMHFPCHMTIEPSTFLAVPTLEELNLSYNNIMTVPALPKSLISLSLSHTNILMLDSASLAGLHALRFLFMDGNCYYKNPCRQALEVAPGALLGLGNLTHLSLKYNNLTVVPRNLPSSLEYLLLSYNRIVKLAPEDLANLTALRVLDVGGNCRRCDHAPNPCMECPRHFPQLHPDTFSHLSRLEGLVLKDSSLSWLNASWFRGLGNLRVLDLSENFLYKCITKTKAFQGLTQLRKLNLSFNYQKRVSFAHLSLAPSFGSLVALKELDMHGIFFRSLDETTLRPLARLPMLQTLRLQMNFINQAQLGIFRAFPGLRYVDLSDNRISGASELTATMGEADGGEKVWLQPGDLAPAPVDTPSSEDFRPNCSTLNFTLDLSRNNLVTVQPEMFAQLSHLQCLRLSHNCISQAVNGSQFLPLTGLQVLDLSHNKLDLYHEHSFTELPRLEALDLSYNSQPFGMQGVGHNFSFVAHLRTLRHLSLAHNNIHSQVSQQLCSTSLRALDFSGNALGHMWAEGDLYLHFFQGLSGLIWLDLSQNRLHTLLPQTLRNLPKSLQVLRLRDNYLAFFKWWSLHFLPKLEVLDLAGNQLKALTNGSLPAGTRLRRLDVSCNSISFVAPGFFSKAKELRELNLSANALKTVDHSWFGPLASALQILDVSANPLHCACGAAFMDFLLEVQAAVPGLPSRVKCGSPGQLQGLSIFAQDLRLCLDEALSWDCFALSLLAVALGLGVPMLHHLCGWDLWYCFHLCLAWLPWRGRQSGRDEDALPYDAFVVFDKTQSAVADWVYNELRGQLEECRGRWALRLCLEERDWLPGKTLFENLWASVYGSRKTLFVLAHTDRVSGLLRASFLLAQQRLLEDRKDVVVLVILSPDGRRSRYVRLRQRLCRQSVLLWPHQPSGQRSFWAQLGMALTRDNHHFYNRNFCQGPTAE
The experiment in a line: TLR9 inhibition reporter assay (HEK-Blue cells, SEAP reporter, ODN2006 stimulation). The following applies: HEK-Blue cells overexpressing human TLR9, SEAP reporter, ODN2006 5 nM. Summed up: (§1)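 HEK-Blue cells overexpressing human TLR7, TLR8 or TLR9, with an NF-κB/AP-1-driven SEAP reporter, pre-treated 30 min at room temperature with compound (0.05 nM-50 μM final). Stimulated with 7.5 μM gardiquimod (TLR7), 15.9 μM R848 (TLR8) or 5 nM ODN2006 (TLR9), then 22 h at 37° C. SEAP read with HEK-Blue Detection; % inhibition set against agonist+DMSO and known-inhibitor wells.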
On the technique in general: Reporter assays use an easily measured gene product as a stand-in for the process of interest.

The next assay concerns the target T2, human TLR8 (Homo sapiens, UniProt Q9NR97).
T2 construct: host or cells: HEK-Blue cells
T2 sequence (Q9NR97 27-1041): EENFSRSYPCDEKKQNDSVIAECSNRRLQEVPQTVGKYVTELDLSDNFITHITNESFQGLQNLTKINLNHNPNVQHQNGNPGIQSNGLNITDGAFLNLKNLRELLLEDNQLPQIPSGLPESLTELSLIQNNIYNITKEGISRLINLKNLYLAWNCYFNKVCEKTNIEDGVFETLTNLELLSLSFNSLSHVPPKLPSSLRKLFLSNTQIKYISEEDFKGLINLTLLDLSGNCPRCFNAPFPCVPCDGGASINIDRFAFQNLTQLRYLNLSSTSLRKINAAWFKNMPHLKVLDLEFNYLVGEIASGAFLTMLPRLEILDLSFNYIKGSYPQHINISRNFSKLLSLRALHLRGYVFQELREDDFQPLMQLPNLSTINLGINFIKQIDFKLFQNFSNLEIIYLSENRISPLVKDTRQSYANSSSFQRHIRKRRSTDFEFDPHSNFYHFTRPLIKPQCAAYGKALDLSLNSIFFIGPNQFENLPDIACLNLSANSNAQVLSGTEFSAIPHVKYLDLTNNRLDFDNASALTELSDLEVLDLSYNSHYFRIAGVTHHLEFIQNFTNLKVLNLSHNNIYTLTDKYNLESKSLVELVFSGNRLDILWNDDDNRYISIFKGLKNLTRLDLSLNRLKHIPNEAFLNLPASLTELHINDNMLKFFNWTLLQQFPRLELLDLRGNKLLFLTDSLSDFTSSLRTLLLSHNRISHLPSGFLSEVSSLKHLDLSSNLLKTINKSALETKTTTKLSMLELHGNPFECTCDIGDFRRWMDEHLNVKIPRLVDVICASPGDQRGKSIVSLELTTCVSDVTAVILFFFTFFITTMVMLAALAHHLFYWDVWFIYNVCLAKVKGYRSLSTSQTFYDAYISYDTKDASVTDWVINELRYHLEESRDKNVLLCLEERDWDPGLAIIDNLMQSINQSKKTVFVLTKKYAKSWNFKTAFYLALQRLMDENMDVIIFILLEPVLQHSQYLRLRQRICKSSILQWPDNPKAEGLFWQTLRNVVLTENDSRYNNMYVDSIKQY
The experiment in a line: TLR8 inhibition reporter assay (HEK-Blue cells, SEAP reporter, R848 stimulation). The following applies: HEK-Blue cells overexpressing human TLR8, SEAP reporter, R848 15.9 μM. Summed up:
as §1

The target in another assay is T3, human TLR7 (Homo sapiens, UniProt Q9NYK1).
T3 construct: host or cells: HEK-Blue cells
T3 sequence (Q9NYK1 27-1049): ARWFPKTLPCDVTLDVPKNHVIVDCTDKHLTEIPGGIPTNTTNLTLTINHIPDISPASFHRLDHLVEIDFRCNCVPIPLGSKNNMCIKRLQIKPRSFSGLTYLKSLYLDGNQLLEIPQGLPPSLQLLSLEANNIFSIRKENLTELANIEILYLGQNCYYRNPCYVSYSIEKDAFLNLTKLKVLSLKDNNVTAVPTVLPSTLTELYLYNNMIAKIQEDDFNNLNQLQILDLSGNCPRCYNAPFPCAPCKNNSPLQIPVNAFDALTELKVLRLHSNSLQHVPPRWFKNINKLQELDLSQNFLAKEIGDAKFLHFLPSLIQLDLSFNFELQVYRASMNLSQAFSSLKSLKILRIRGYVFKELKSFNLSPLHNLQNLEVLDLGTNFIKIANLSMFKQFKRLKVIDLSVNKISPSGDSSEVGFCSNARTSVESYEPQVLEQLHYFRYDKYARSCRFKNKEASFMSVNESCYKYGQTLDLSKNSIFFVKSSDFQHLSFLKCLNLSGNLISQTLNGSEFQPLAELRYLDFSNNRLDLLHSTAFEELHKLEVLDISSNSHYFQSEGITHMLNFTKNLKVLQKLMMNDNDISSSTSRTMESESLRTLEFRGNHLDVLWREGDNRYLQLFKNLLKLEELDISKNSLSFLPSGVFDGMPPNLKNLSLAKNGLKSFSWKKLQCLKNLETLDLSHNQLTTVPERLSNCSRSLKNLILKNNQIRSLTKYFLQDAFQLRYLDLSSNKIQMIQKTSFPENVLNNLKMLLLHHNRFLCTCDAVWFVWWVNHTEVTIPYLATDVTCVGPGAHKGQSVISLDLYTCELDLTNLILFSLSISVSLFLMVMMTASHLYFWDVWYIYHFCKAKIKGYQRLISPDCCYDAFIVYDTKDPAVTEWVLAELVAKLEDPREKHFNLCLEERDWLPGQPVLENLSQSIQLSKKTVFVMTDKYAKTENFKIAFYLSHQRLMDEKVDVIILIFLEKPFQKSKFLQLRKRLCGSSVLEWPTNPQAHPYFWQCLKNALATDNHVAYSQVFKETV
In words: TLR7 inhibition reporter assay (HEK-Blue cells, SEAP reporter, gardiquimod stimulation). The note with it: HEK-Blue cells overexpressing human TLR7, SEAP reporter, gardiquimod 7.5 μM. The procedure, abridged:
as §1

In general, IC50 refers to the concentration at which inhibition is half-maximal. As for `Cc1cc(-c2[nH]nc(C3CCC(N(C)CC(=O)N(C)C)CC3)c2C(C)C)cn2ncnc12` (stereo not drawn) [Example 298, 2-((4-(4-isopropyl-5-(8-methyl-[1,2,4]triazolo[1,5-a]pyridin-6-yl)-1H-pyrazol-3-yl)cyclohexyl)(methyl)amino)-N,N-dimethylacetamide], the IC50 came out at 7410 nM against human TLR9, 0.43 nM against human TLR8 and 1.56 nM at human TLR7.

As to `Cc1cc(-c2[nH]nc(CNC3CCN(C(C)C)CC3)c2C(C)C)cn2ncnc12` [Example 186], the IC50 against human TLR9 worked out at 5920 nM; against human TLR8, 0.21 nM; at human TLR7, 1.59 nM.

Take `Cc1cc(-c2[nH]nc(-c3nc4c(s3)CN(C)CC4)c2C(C)C)cn2ncnc12` [Example 256]: the concentration for half-maximal inhibition (IC50) against human TLR9 was determined as 16900 nM; at human TLR8, 31.3 nM; against human TLR7, 34.3 nM.

Regarding `Cc1cc(-c2[nH]nc(C(=O)N[C@H]3CC[C@H](NC(C)C(C)(C)C)CC3)c2C(C)C)cn2ncnc12` (stereo partly drawn) [Example 148], the IC50 at human TLR9 is more than 50000 nM; at human TLR8, 9.93 nM; against human TLR7, 11.8 nM.

For the molecule `Cc1cc(-c2[nH]nc(C(=O)NC3CCN(Cc4ncn(C)n4)CC3)c2C(C)C)cn2ncnc12` [Example 158], the values for the IC50 against human TLR9, against human TLR8 and on human TLR7 were 14300 nM, 31 nM and 8.95 nM, respectively.

On to `Cc1cc(-c2[nH]nc(-c3ccc(C4CCN(C(C)C)CC4)cc3)c2C(C)C)cn2ncnc12` [Example 307, 6-(4-isopropyl-3-(4-(1-isopropylpiperidin-4-yl)phenyl)-1H-pyrazol-5-yl)-8-methyl-[1,2,4]triazolo[1,5-a]pyridine], for which the IC50 at human TLR9 was more than 50000 nM; against human TLR8, 9.33 nM; against human TLR7, 118 nM.

Consider `CCN1CC(c2ccc(-c3n[nH]c(-c4cc(OC)c5ncnn5c4)c3C(C)C)cc2)C1` [Example 329], for which the half-maximal inhibitory concentration (IC50) worked out at 14700 nM at human TLR9, 60.3 nM on human TLR8 and 414 nM against human TLR7.

As to `Cc1cc(-c2[nH]nc(C3CCC(N4CCN(C)CC4)CC3)c2C(C)C)cn2ncnc12` (single isomer, unassigned) [Example 287], the figures for the concentration for half-maximal inhibition (IC50) at human TLR9, against human TLR8 and against human TLR7 were 29200 nM, 0.54 nM and 13.3 nM, respectively.

As to `Cc1cc(-c2[nH]nc(C(=O)N[C@H]3CC[C@@H](NC4CCOC(C)(C)C4)CC3)c2C(C)C)cn2ncnc12` (stereo partly drawn) [Example 97], the IC50 at human TLR9 came to 5490 nM; against human TLR8, 41.9 nM; against human TLR7, 2.42 nM.

Turning to `COc1ncc(CN[C@H]2CC[C@H](NC(=O)c3n[nH]c(-c4cc(C)c5ncnn5c4)c3C(C)C)CC2)cn1` [Example 114], the 50% inhibitory concentration (IC50) was found to be 1460 nM against human TLR9, 1.4 nM at human TLR8 and 3.63 nM at human TLR7.

As to `COc1cc(-c2[nH]nc(C(=O)NC3CCN(C(C)C)CC3)c2C(C)C)cn2ncnc12` [Example 12], the concentration for half-maximal inhibition (IC50) at human TLR9 stood at 2150 nM; against human TLR8 it was 0.86 nM; at human TLR7, 1.59 nM.

As to `Cc1cc(-c2[nH]nc(C(=O)NCC3CN(CC(C)(C)O)CCO3)c2C(C)C)cn2ncnc12` (stereo not drawn) [Example 143], the half-inhibitory concentration (IC50) is 9280 nM at human TLR9, 19.6 nM against human TLR8 and 5.34 nM at human TLR7.

For `COCCN1CCc2cc(-c3n[nH]c(-c4cc(C)c5ncnn5c4)c3C(C)C)ccc2C1` [Example 263, 6-(4-isopropyl-5-(8-methyl-[1,2,4]triazolo[1,5-a]pyridin-6-yl)-1H-pyrazol-3-yl)-2-(2-methoxyethyl)-1,2,3,4-tetrahydroisoquinoline], the concentration for half-maximal inhibition (IC50) against human TLR9 came to 18100 nM; against human TLR8, 4.48 nM; against human TLR7, 4.74 nM.

Consider `CCN1CCC(c2ccc(-c3n[nH]c(-c4cc(C)c5ncnn5c4)c3C(C)C)cn2)CC1` [Example 360], for which the IC50 is more than 50000 nM against human TLR9, 1330 nM against human TLR8 and 1220 nM at human TLR7.

As for `Cc1cc(-c2[nH]nc(-c3ccc(C4CCNCC4)cn3)c2C(C)C)cn2ncnc12` [Example 342], the values for the IC50 against human TLR9, on human TLR8 and at human TLR7 were more than 50000 nM, 12.6 nM and 19.6 nM, respectively.

For the molecule `Cc1cc(-c2[nH]nc(C(=O)N[C@H]3CC[C@@H](NCC(C)(C)C)CC3)c2C(C)C)cn2ncnc12` [Example 89], the IC50 on human TLR9 came out at 4100 nM; against human TLR8 it was 18.9 nM; against human TLR7 it was 1.48 nM.

Take `COc1cc(-c2[nH]nc(-c3ccc(C4CCN(CC5CC5)CC4)cn3)c2C(C)C)cn2ncnc12` [Example 374]: the IC50 on human TLR9 was 41500 nM; against human TLR8 it was 9.33 nM; against human TLR7, 11.7 nM.

On to `Cc1cc(-c2[nH]nc(C3CCC(N4CCC(N(C)C)CC4)CC3)c2C(C)C)cn2ncnc12` (single isomer, unassigned) [Example 292], for which the IC50 against human TLR9 was 7520 nM; against human TLR8 it was 0.46 nM; at human TLR7 it was 3.18 nM.

Regarding `CCN1CCC[C@H](NC(=O)c2n[nH]c(-c3cc(C)c4ncnn4c3)c2C(C)C)C1` [Example 164], the results for the half-maximal inhibitory concentration (IC50) against human TLR9, against human TLR8 and against human TLR7 were 15600 nM, 4.43 nM and 1.32 nM, respectively.
